Reference: patent US8188102B2, “Amide derivative for inhibiting the growth of cancer cells” (Hanmi Holdings Co., Ltd., priority 2007, dated 2012)

Experiments:
[1] = test system: SW-620 colon/rectal cancer cell line; test: Cancer cell growth inhibition, SW-620 (SRB); conditions: Homo sapiens, SW-620, 72 h, read-out: IC50 (nM) SW-620
[2] = test system: A431 skin cancer cell line; test: Cancer cell growth inhibition, A431 (SRB); conditions: Homo sapiens, A-431, 72 h, read-out: ID50 (nM) A431
[3] = test system: SK-Br3 breast cancer cell line; test: Cancer cell growth inhibition, SK-Br3 (SRB); conditions: Homo sapiens, SK-BR-3, 72 h, read-out: ID50 (nM) SK-Br3
[4] = test system: H1975 lung cancer cell line; test: Cancer cell growth inhibition, H1975 (celltiter); conditions: Homo sapiens, NCI-H1975, 48 h, read-out: IC50 (nM) H1975
Method: The medium was removed from each well of the 96-well plate.
In case of H1975, the cells were diluted with a culture medium to a concentration of 50,000 cells/ml. 100 μl of the diluted cell solution was added to each well of a 96-well plate, and, after 1 day, was washed with a mixture of RPMI, 0.1% FBS and 1% penicillin-streptomycin (PS), followed by replacement of the medium. The plate was allowed to be kept overnight and be treated to various concentrations under the same medium condition for 48 hrs. Similarly to an MTT assay, 15 μl of a celltiter one shot solution (Promega) was added to each well, which was incubated for 2 to 3 hrs, and, then, the absorbance at 490 nm was determined.

[5] = target: EGFR T790M kinase (Homo sapiens, UniProt P00533, T790M); test: Inhibition of EGFR mutant enzyme (T790M); conditions: read-out: IC50 (nM) T790M; EGFR T790M kinase
Chain of EGFR T790M kinase (P00533 25-1210 T790M): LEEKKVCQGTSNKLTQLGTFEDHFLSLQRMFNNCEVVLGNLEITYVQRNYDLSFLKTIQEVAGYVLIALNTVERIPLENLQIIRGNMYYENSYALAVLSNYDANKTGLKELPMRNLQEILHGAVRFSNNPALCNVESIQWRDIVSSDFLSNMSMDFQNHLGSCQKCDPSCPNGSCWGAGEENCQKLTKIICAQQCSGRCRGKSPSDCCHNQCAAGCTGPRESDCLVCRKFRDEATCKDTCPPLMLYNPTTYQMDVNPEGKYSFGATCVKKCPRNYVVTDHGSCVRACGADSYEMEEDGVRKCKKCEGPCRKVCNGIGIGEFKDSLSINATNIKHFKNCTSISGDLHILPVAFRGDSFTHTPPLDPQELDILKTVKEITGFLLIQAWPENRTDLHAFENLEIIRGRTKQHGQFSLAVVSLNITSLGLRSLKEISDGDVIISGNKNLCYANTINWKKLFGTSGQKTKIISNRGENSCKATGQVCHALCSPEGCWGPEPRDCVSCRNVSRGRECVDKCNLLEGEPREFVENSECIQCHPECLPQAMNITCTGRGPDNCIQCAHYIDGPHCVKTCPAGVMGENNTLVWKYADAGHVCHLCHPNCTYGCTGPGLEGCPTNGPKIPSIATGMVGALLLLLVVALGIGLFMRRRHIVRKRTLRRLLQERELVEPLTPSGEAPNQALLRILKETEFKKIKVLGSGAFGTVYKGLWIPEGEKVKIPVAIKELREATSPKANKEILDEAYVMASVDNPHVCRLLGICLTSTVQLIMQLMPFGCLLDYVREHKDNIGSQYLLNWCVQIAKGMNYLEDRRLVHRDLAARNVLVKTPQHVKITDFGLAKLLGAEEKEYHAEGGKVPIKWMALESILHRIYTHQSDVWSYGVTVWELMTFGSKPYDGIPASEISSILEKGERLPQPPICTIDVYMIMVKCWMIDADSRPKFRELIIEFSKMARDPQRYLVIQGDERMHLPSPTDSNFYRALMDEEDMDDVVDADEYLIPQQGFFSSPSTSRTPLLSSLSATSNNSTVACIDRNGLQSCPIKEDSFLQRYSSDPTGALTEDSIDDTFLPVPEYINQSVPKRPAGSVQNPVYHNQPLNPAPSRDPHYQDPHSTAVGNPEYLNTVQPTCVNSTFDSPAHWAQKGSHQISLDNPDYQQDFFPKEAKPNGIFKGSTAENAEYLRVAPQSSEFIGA

Compound	IC50 [1] [nM]	IC50 [2] [nM]	IC50 [3] [nM]	IC50 [4] [nM]	IC50 [5] [nM]
CN(C)C/C=C/C(=O)Nc1cc2c(Nc3ccc(F)c(Cl)c3)ncnc2cc1O[C@H]1CCOC1 [BIBW2992, reference compound]	2640				
COc1cc2ncnc(Nc3cccc(Cl)c3F)c2cc1OC1CCN(C(=O)CO)CC1 [Ex 1*]		39	293	> 1000	
C=CC(=O)N1CC[C@H](Oc2cc3c(Nc4ccc(Cl)c(Cl)c4F)ncnc3cc2OC)C1 [Example 8, 1-((3S)-3-(4-(3,4-dichloro-2-fluorophenylamino)-7-methoxyquinazolin-6-yloxy)pyrrolidin-1-yl)pro-2-pen-1-one]	> 5000				
C=CC(=O)N1CC(Oc2cc3c(Nc4ccc(Cl)c(Cl)c4F)ncnc3cc2OC)C1 [Example 24, 1-(3-(4-(3,4-dichloro-2-fluorophenylamino)-7-methoxyquinazolin-6-yloxy)azetidin-1-yl)pro-2-pen-1-one]	> 5000		0.6		
C=CC(=O)N1CC(Oc2cc3c(Nc4ccc(F)c(Cl)c4)ncnc3cc2OC)C1 [Example 25, 1-(3-(4-(3-chloro-4-fluorophenylamino)-7-methoxyquinazolin-6-yloxy)azetidin-1-yl)pro-2-pen-1-one]	> 5000		0.4		
C=C(NC(C)=O)C(=O)N1CC(Oc2cc3c(Nc4ccc(F)c(Cl)c4F)ncnc3cc2OC)C1 [Example 31, N-(3-(3-(4-(3-chloro-2,4-difluorophenylamino)-7-methoxyquinazolin-6-yloxy)azetidin-1-yl)-3-oxopro-1-en-2-yl)acetamide]		3.1	2.5	50	
COc1cc2ncnc(Nc3ccc(F)c(Cl)c3F)c2cc1OC1CN(C(=O)/C=C\Cl)C1 [Example 32, (Z)-3-chloro-1-(3-(4-(3-chloro-2,4-difluorophenylamino)-7-methoxyquinazolin-6-yloxy)azetidin-1-yl)pro-2-pen-1-one]		2.4	2.2	19	
C=CC(=O)N1CCC(Oc2cc3c(Nc4ccc(Br)c(C)c4)ncnc3cc2OC)CC1 [Example 39, 1-(4-(4-(4-bromo-3-methylphenylamino)-7-methoxyquinazolin-6-yloxy)piperidin-1-yl)pro-2-pen-1-one]		6	9	48	7.6
C=CC(=O)N1CCC(Oc2cc3c(Nc4cccc(C)c4)ncnc3cc2OC)CC1 [Example 41, 1-(4-(4-(m-toluidino)-7-methoxyquinazolin-6-yloxy)piperidin-1-yl)pro-2-pen-1-one]		1	2	236	9.3
C=CC(=O)N1CCC(Oc2cc3c(Nc4cccc(Br)c4)ncnc3cc2OC)CC1 [Example 42, 1-(4-(4-(3-bromophenylamino)-7-methoxyquinazolin-6-yloxy)piperidin-1-yl)pro-2-pen-1-one]		1	0.7	96	7.1
C=CC(=O)N1CCC(Oc2cc3c(Nc4cccc(Cl)c4)ncnc3cc2OC)CC1 [Example 43, 1-(4-(4-(3-chlorophenylamino)-7-methoxyquinazolin-6-yloxy)piperidin-1-yl)pro-2-pen-1-one]	> 5000		0.7		
C=CC(=O)N1CCC(Oc2cc3c(Nc4ccc(F)c(Cl)c4)ncnc3cc2OC)CC1 [Example 57, 1-(4-(4-(3-chloro-4-fluorophenylamino)-7-methoxyquinazolin-6-yloxy)piperidin-1-yl)pro-2-pen-1-one]	> 5000	17	2	16	
C=CC(=O)N1CCC(Oc2cc3c(Nc4cccc(C(F)(F)F)c4)ncnc3cc2OC)CC1 [Example 58, 1-(4-(7-methoxy-4-(3-(trifluoromethyl)phenylamino)quinazolin-6-yloxy)piperidin-1-yl)pro-2-pen-1-one]	> 5000	58	20		16.2
C=CC(=O)N1CCC(Oc2cc3c(Nc4cccc(C=C)c4)ncnc3cc2OC)CC1 [Example 73, 1-(4-(7-methoxy-4-(3-vinylphenylamino)quinazolin-6-yloxy)piperidin-1-yl)pro-2-pen-1-one]	> 5000	1.9	1.2	27	3
C=C(CN(C)C)C(=O)N1CC(Oc2cc3c(Nc4ccc(F)c(Cl)c4F)ncnc3cc2OC)C1 [Example 104, 1-(3-(4-(3-chloro-2,4-difluorophenylamino)-7-methoxyquinazolin-6-yloxy)azetidin-1-yl)-2-((dimethylamino)methyl)prop-2-en-1-one]	> 5000	41	1.5	11	2
C=C(CN1CCOCC1)C(=O)N1CC(Oc2cc3c(Nc4ccc(F)c(Cl)c4F)ncnc3cc2OC)C1 [Example 105, 1-(3-(4-(3-chloro-2,4-difluorophenylamino)-7-methoxyquinazolin-6-yloxy)azetidin-1-yl)-2-(morpholinomethyl)prop-2-en-1-one]	> 5000	1.5	0.5	8	4
C=CC(=O)N1CC[C@H](Oc2cc3c(Nc4ccc(F)c(Cl)c4F)ncnc3cc2OC)C[C@H]1C(=O)NCCO [Example 126, (2S,4S)-1-acryloyl-4-(4-(3-chloro-2,4-difluorophenylamino)-7-methoxyquinazolin-6-yloxy)-N-(2-hydroxyethyl)piperidin-2-carboxamide]	> 5000	5.4	0.9	39	1.8
C=CC(=O)N1CC[C@H](Oc2cc3c(Nc4ccc(F)c(Cl)c4F)ncnc3cc2OC)C[C@H]1C(=O)NCCOC [Example 127, (2S,4S)-1-acryloyl-4-(4-(3-chloro-2,4-difluorophenylamino)-7-methoxyquinazolin-6-yloxy)-N-(2-methoxyethyl)piperidin-2-carboxamide]	> 5000	3.4	2.3	11	3.8
C=CC(=O)N1CC[C@H](Oc2cc3c(Nc4ccc(F)c(Cl)c4F)ncnc3cc2OC)C[C@H]1C(=O)NCCSC [Example 128, (2S,4S)-1-acryloyl-4-(4-(3-chloro-2,4-difluorophenylamino)-7-methoxyquinazolin-6-yloxy)-N-(2-(methylthio)ethyl)piperidin-2-carboxamide]	> 5000	2.4	5	5	1.4
C=CC(=O)N1CC[C@H](Oc2cc3c(Nc4ccc(F)c(Cl)c4F)ncnc3cc2OC)C[C@H]1C(=O)NCCS(C)(=O)=O [Example 129, (2S,4S)-1-acryloyl-4-(4-(3-chloro-2,4-difluorophenylamino)-7-methoxyquinazolin-6-yloxy)-N-(2-(methylsulfonyl)ethyl)piperidin-2-carboxamide]		2.2	0.6	50.4	3
C=CC(=O)N1CC[C@H](Oc2cc3c(Nc4ccc(F)c(Cl)c4F)ncnc3cc2OC)C[C@H]1C(=O)NCCN(C)C [Example 130, (2S,4S)-1-acryloyl-4-(4-(3-chloro-2,4-difluorophenylamino)-7-methoxyquinazolin-6-yloxy)-N-(2-(dimethylamino)ethyl)piperidin-2-carboxamide]	> 5000	5.7	0.9	30	6.6
C=CC(=O)N1CC[C@@H](Oc2cc3c(Nc4ccc(F)c(Cl)c4F)ncnc3cc2OC)C[C@@H]1C(=O)NC [Example 136, (2R,4R)-1-acryloyl-4-(4-(3-chloro-2,4-difluorophenylamino)-7-methoxyquinazolin-6-yloxy)-N-methylpiperidin-2-carboxamide]	> 5000	2.9	0.2	2.6	0.9
C=CC(=O)N1CC[C@@H](Oc2cc3c(Nc4ccc(F)c(Cl)c4F)ncnc3cc2OC)C[C@@H]1C(=O)NCCS(C)(=O)=O [Example 138, (2R,4R)-1-acryloyl-4-(4-(3-chloro-2,4-difluorophenylamino)-7-methoxyquinazolin-6-yloxy)-N-(2-(methylsulfonyl)ethyl)piperidin-2-carboxamide]		2.4	1.3		
C=CC(=O)N1CC[C@@H](Oc2cc3c(Nc4ccc(Cl)c(Cl)c4F)ncnc3cc2OC)C[C@@H]1C(N)=O [Example 139, (2R,4R)-1-acryloyl-4-(4-(3,4-dichloro-2-fluorophenylamino)-7-methoxyquinazolin-6-yloxy)piperidin-2-carboxamide]	> 5000	0.8	1.1	1.1	
C=CC(=O)N1CC[C@@H](Oc2cc3c(Nc4ccc(Br)cc4F)ncnc3cc2OC)C[C@@H]1C(N)=O [Example 140, (2R,4R)-1-acryloyl-4-(4-(4-bromo-2-fluorophenylamino)-7-methoxyquinazolin-6-yloxy)piperidin-2-carboxamide]		1.1	0.3		
CS(=O)(=O)CCNCc1ccc(-c2ccc3ncnc(Nc4ccc(OCc5cccc(F)c5)c(Cl)c4)c3c2)o1 [Lapatinib, reference compound]	> 5000	80	40		
